Reference: paper PMC8473292 (Viruses, 2021)
pIC50: −log10 of the molar value. Structures can show the parent of a compound that is named as a salt. Where two headings read alike, the source gives them in different places.

Assays:
wild-type PEDV = experiment: Confirmation of anti-PEDV activity with wild-type PEDV by TCID50 in Vero cells; format: cell-based, Porcine epidemic diarrhea virus (PEDV); details: wild-type PEDV MOI 0.01, Vero cells, TCID50 and IFA; antioxidants 2.5, 5, 10 μM; NAC 50, 100, 200 μM
rPEDV-NLuc = experiment: microbe, parasite or virus in culture; format: cell-based, Porcine epidemic diarrhea virus (PEDV) YN150 strain; details: for pIC50: Vero cells, rPEDV-NLuc MOI 0.01, 1 h pre-treatment, 1.25-10 μM, NLuc activity at 20 h post-infection; for SI: selective index from CC50 and IC50
in vitro = details: African green monkey
PEDV-induced ROS = experiment: Detection of PEDV-induced intracellular ROS production with DCFH-DA; format: cell-based; details: 10 μM, wild-type PEDV MOI 0.01, Vero cells, 16 h post-infection
[1] = Porcine epidemic diarrhea virus, Vero

Compound | pIC50 (rPEDV-NLuc; [1]) | SI (rPEDV-NLuc) | CC50 (in vitro) [µM] | CC50 (Vero cells; Vero cells, MTT assay) [µM] | pIC50 (rPEDV-NLuc; read-out: IC50) | other results
CC(=O)N[C@@H](CS)C(=O)O [NAC, N-acetyl-L-cysteine] | – | – | – | – | – | inhibition of PEDV replication, dose dependence (wild-type PEDV): exhibited anti-PEDV activity in a dose-dependent manner
C[C@H]1[C@H](C)CC[C@]2(C(=O)O)CC[C@]3(C)C(=CC[C@@H]4[C@@]5(C)CCC(=O)C(C)(C)[C@@H]5CC[C@]43C)[C@H]12 [Ursonic acid] | 5.67 | 19.23 | 41 | – | – | DCFH-DA fluorescence in PEDV-infected cells (fluorescence microscopy) (PEDV-induced ROS): only a few fluorescence signals were detected
O=C(/C=C/c1ccc(O)c(O)c1)OCCc1ccccc1 [Caffeic Acid Phenethyl Ester] | 5.76 | >57.63 | > 100 | – | – | DCFH-DA fluorescence in PEDV-infected cells (fluorescence microscopy) (PEDV-induced ROS): only a few fluorescence signals were detected
Cc1cc(O)c2c(c1)C(=O)c1cc(O)cc(O)c1C2=O [Emodin] | 5.68 | >50 | > 100 | – | – | –
Tannic acid | – | >22.89 | – | > 100 | 5.36 | –
CC[C@]12C=CCN3CC[C@]4(C(=C(C(=O)OC)C1)Nc1ccccc14)[C@@H]32.Cl [Tabersonine hydrochloride] | – | 19.23 | – | 82.6 | 5.37 | –
COc1cc(O)cc(O)c1C(=O)/C=C/c1ccccc1 [(E)-Cardamonin] | – | >46.44 | – | > 100 | 5.67 | –
C=C(C)[C@@H]1CC[C@]2(C(=O)O)CC[C@]3(C)[C@H](CC[C@@H]4[C@@]5(C)CCC(=O)C(C)(C)[C@@H]5CC[C@]43C)[C@@H]12 [Betulonic acid] | – | >49.52 | – | 61.9 | > 5.90 | DCFH-DA fluorescence in PEDV-infected cells (fluorescence microscopy) (PEDV-induced ROS): only a few fluorescence signals were detected
Cc1cc2c(C(C)C)c(O)c(O)c(C=O)c2c(O)c1-c1c(C)cc2c(C(C)C)c(O)c(O)c(C=O)c2c1O [gossypol-Acetic acid] | 5.54 | >30 | > 100 | – | – | –
C=CC(C)(C)c1cc(/C=C/C(=O)c2ccc(O)cc2)c(OC)cc1O [Licochalcone A] | – | >25 | – | > 100 | 5.40 | –
Tubeimoside I | – | 17.76 | – | – | 5.38 | CC50 (Vero cells): 74.8 µM
C[C@H](CCC(=O)O)[C@H]1CC[C@H]2[C@@H]3CC[C@@H]4C[C@H](O)CC[C@]4(C)[C@H]3CC[C@]12C [Lithocholic acid] | 5.63 | >42.12 | > 100 | – | – | DCFH-DA fluorescence in PEDV-infected cells (fluorescence microscopy) (PEDV-induced ROS): only a few fluorescence signals were detected
COc1ccc2c(c1)[nH]c1c(C)nccc12 [Harmine hydrochloride] | 5.88 | >75.04 | > 100 | – | – | –
CC(Cc1ccc(O)c(O)c1)C(C)Cc1ccc(O)c(O)c1 (centres unmarked) [Nordihydroguaiaretic acid] | – | >19.99 | – | > 100 | 5.30 | DCFH-DA fluorescence in PEDV-infected cells (fluorescence microscopy) (PEDV-induced ROS): only a few fluorescence signals were detected
C=C1C(=O)[C@]23[C@H](O)[C@H]1CC[C@H]2[C@@]12CO[C@]3(O)[C@@H](O)[C@@H]1C(C)(C)CC[C@@H]2O [Oridonin] | 5.52 | – | 35 | – | – | –
CC1=C(C(=O)OCCN(Cc2ccccc2)c2ccccc2)C(c2cccc([N+](=O)[O-])c2)C(P2(=O)OCC(C)(C)CO2)=C(C)N1 (centres unmarked) [Efonidipine, reference compound] | 5.25 | >17.93 | > 100 | – | – | –
C[C@@H]1[C@H](O)[C@@H](C)/C=C/C=C/C=C/C=C/C=C/C=C/C=C/[C@H](O[C@@H]2O[C@H](C)[C@@H](O)[C@H](N)[C@@H]2O)C[C@@H]2O[C@](O)(C[C@@H](O)C[C@@H](O)[C@H](O)CC[C@@H](O)C[C@@H](O)CC(=O)O[C@H]1C)C[C@H](O)[C@H]2C(=O)O [Amphotericin B, reference compound] | 5.54 | >34.42 | > 100 | – | – | –
CCc1c2c(nc3ccccc13)-c1cc3c(c(=O)n1C2)COC(=O)[C@]3(O)CC [7-Ethylcamptothecin] | – | >80 | – | > 100 | > 5.90 | –
C=CC1=C(C)c2cc3[nH]c(cc4nc(cc5[nH]c(cc1n2)c(C)c5CCC(=O)O)C(CCC(=O)O)=C4C)c(C)c3C=C [Protoporphyrin IX] | > 5.90 | >80 | > 100 | – | – | –
COc1ccc2c(c1)[nH]c1c(C)nccc12 [Harmine] | – | >51.10 | – | – | – | pIC50 (rPEDV-NLuc): 5.71
COc1cc(/C=C/c2ccc(O)c(O)c2)cc(OC)c1 [3′-Hydroxypterostilbene] | – | >23.29 | – | > 100 | 5.37 | –
C[C@@]1(C(=O)O)CC[C@]2(C)CC[C@]3(C)C4=CC(=O)c5c(cc(O)c(O)c5C=O)[C@]4(C)CC[C@@]3(C)[C@@H]2C1 [Demethylzeylasteral] | – | 16.27 | – | – | 5.63 | CC50 (Vero cells): 38.6 µM
O=c1ccc2cc(O)c(O)cc2o1 [Esculetin] | 5.22 | >16.75 | > 100 | – | – | DCFH-DA fluorescence in PEDV-infected cells (fluorescence microscopy) (PEDV-induced ROS): only a few fluorescence signals were detected
